Where a name gives a salt, the structure may show the parent alone. Read-outs that look alike come from different tables or passages of the source.
How the values were obtained:
[1] = target: T1, rhAOC1 (Homo sapiens, UniProt P19801); assay: Selectivity against rhAOC1 enzyme (Biological Example 1); format: biochemical; details: Table 1; histamine substrate, Amplex Red/HRP
T1 construct: purchased R&D
T1 sequence (P19801 20-751): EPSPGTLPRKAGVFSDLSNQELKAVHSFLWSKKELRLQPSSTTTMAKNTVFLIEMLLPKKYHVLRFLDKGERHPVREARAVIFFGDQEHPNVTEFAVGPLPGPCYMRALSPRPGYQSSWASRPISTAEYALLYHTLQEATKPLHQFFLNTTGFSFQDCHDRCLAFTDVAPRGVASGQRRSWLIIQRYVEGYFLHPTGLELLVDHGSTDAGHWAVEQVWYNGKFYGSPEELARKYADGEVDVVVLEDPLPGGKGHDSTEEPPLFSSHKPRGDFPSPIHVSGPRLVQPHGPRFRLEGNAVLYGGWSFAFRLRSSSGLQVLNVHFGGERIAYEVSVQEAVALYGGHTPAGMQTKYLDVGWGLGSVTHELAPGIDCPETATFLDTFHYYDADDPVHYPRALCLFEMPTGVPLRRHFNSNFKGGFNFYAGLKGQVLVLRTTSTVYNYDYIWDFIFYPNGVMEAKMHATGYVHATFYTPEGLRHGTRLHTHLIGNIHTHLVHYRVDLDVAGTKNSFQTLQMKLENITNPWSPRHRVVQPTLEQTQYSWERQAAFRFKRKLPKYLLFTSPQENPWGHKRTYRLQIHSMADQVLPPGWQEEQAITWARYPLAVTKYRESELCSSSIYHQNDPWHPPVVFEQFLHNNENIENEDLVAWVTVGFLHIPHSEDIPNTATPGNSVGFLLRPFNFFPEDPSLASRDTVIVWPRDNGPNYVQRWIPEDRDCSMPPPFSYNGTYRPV
Description: 2. Selectivity of Compounds Against rhAOC1 Enzyme
(1) Instrument, Consumable and Reagent
Microplate reader (Perkin Elmer, Nivo 5S), black unclear-bottom 96-well plate (Corning) and rhAOC1 (R&D)
(2) Preparation of Concentration Gradient Compound Solutions
An appropriate amount of the compound to be tested was taken, dissolved in DMSO to 10 mM and then stored. Before the study, an appropriate amount of mother liquor of the 10 mM compound to be tested was taken and gradiently diluted 3-fold with DMSO, 10 concentration gradients in total. Each concentration gradient was then diluted 10-fold with 0.1 M of PBS.
(3) Preparation of Enzyme Solutions
An appropriate amount of rhAOC1 mother liquor with a concentration of 0.441 mg/mL was taken and diluted with an appropriate amount of 50 mM HEPES buffer solution to obtain enzyme solutions of 4× concentrations.
(4) Preparation of Substrate Mixtures of 2× Concentrations
An appropriate amount of histamine was weighed and dissolved with 50 mM of HEPES buffer solution to obtain 20 mM of histamine solution. The histamine solution was added with 2 mM of Amplex Red mother liquor and 500 U/mL of HRP mother liquor and diluted with 50 mM of HEPES buffer solution to obtain substrate mixtures of 2× concentrations.
10 μL compound solutions of different concentrations, 25 μL rhAOC1 enzyme solutions of 4× concentrations and 15 μL of 50 mM HEPES buffer solution were first added into a 96-well plate, shaken to be mixed uniformly and then incubated at 37° C. for 30 min. 50 μL substrate mixtures of 2× concentrations were then added into each well, and the microplate reader was immediately used to detect fluorescence intensity of each well with 580 nm (20 nm) exciting light and 620 nm (10 nm) emission light for 5 min each time, 30 min in total. […]
V: fluorescence change rate; Ft: fluorescence reading at time point t; F0: initial fluorescence reading; Time: duration t; Vcmpd: fluorescence change rate of tested compound; Vmax: Max hole fluorescence change rate. […]

[2] = Rat blood-brain barrier evaluation; format: in vivo; details: SD rats, intragastric 10 mg/kg; for concentrations in brain tissues (in words): over time
Description: (1) Animal Administration and Sampling Method:
The study compound A1, the compound A41 and PXS-4728 were dissolved in normal saline to prepare solutions. The prepared solutions were separately administered by intragastric administration to SD rats at a dose of 10 mg/kg. […] At each time point, samples were collected from three SD rats.
On the day of the study, the animals were fixed to collect 0.15 mL of blood from the jugular vein at each set time point, and the whole blood samples were put into anticoagulation tubes containing EDTA-K2. After blood sampling was completed, heart perfusion was immediately performed for the animals, and following the heart perfusion, brain tissue samples were collected.
After the whole blood samples were centrifuged under the condition of 1,524 g for 10 min, top plasma samples were collected into sample tubes. The tissue samples were weighed, added with 20% of aqueous methanol solution at a weight-to-volume ratio of 1:5 (tissue:homogenate) and homogenized. The biological samples were stored at −40° C. to −20° C. for analysis.
(4) Sample Analysis Method:
(§1) Plasma sample: The samples to be tested were taken out of the refrigerator, naturally thawed at room temperature and then swirled for 5 min, and 20 μL of plasma sample was accurately pipetted into 1.5 mL centrifuge tubes. 100 μL of internal standard working solution (solution of 5 ng/mL verapamil and 50 ng/mL glibenclamide in acetonitrile) was added, and uniform mixing was performed. After 1 min of swirling, centrifugation was performed at 13,000 rpm for 8 min. 40 μL of supernate was accurately pipetted into a 96-well plate added with 160 μL water/well in advance. Uniform mixing was performed by swirling for 10 min, followed by LC-MS/MS assay.
as §1, with “Brain tissue” for “Plasma”, “50” for “20”, “250” for “100”, “30” for “40”, “150” for “160”
(5) Data Processing Method:
Analyst 1.6.2 from AB Sciex was used to output concentration results of tested compounds. Microsoft Excel was used to calculate parameters such as mean value, standard deviation and variation coefficient (excluding those outputted directly by Analyst 1.6.2).

[3] = rat, plasma, oral, 0.167 h, read-out: Average Plasma concentration (N=3)
[4] = rat, plasma, oral, 1 h, read-out: Average Plasma concentration (N=3)
[5] = rat, plasma, oral, 6 h, read-out: Average Plasma concentration (N=3)

| IC50 [1] [µM] | Average Brain tissue concentration (N=3) ([2]; 0.167 h) | Mean brain tissue/plasma concentration ratio ([2]; 0.167 h) | concentrations in brain tissues (in words) [2] | concentration at 1 h ([2]; rat, brain, oral, 1 h, read-out: Average Brain tissue concentration (N=3)) [ng/g] | concentration at 6 h ([2]; rat, brain, oral, 6 h, read-out: Average Brain tissue concentration (N=3)) [ng/g] | Kp at 1 h ([2]; rat, brain/plasma, oral, 1 h, read-out: Mean brain tissue/plasma concentration ratio) | Kp at 6 h ([2]; rat, brain/plasma, oral, 6 h, read-out: Mean brain tissue/plasma concentration ratio) | concentration at 0.167 h [2, 3] [ng/mL] | concentration at 1 h [2, 4] [ng/mL] | concentration at 6 h [2, 5] [ng/mL] | Average Brain tissue concentration (N=3) ([2]; 1 h) | Average Brain tissue concentration (N=3) ([2]; 6 h) | SMILES |
| --- | --- | --- | --- | --- | --- | --- | --- | --- | --- | --- | --- | --- | --- |
| 22.1 | BLOQ | 0← | below the limit of detection | 39.1 | 31.3 | 0.03 | 0.39 | 158 | 1300 | 80.7 | – | – | NC/C(=C\F)Cn1cc2c(n1)CCN(C1CC1)C2=O [Compound A1, (E)-2-(2-(aminomethyl)-3-fluoroallyl)-5-cyclopropyl-2,5,6,7-tetrahydro-4H-pyrazolo[4,3-c]pyridin-4-one] |
| > 10 | – | – | – | – | – | – | – | – | – | – | – | – | NC/C(=C\F)Cn1ncc2c1CCN(C1CC1)C2=O [Compound A2 hydrochloride, (E)-1-(2-(aminomethyl)-3-fluoroallyl)-5-cyclopropyl-1,5,6,7-tetrahydro-4H-pyrazolo[4,3-c]pyridin-4-one] |
| – | BLOQ | – | below the limit of detection | – | – | – | – | 624 | 1750 | 39.7 | BLOQ | BLOQ | NC/C(=C\F)Cn1cc2c(=O)n(C3CC3)ccc2n1 [Compound A41, (E)-2-(2-(aminomethyl)-3-fluoroallyl)-5-cyclopropyl-2,5-dihydro-4H-pyrazolo[4,3-c]pyridin-4-one] |
